Source: patent US8592581B2, “Trisubstituted purine derivatives” (Cyclacel Limited, priority 2007, dated 2013)

What was measured:
CYP1A = CYP1A (Homo sapiens, UniProt P05177); assay: CYP1A inhibition, human liver microsomes, ethoxyresorufin; format: in vitro ADME
Description: (§1) Six test compound concentrations (0.05, 0.25, 0.5, 2.5, 5, 25 μM in DMSO; final DMSO concentration=0.35%) were incubated with human liver microsomes (0.25 mg/mL) and NADPH (1 mM) in the presence of the probe substrate ethoxyresorufin (0.5 μM) for 5 min at 37° C. The selective CYP1A inhibitor, alpha-naphthoflavone, was screened alongside the test compounds as a positive control.
(§2) For the CYP1A incubations, the reactions were terminated by the addition of methanol, and the formation of the metabolite, resorufin, was monitored by fluorescence (excitation wavelength=535 nm, emission wavelength=595 nm). For the CYP2C9, CYP2C19, CYP2D6, and CYP3A4 incubations, the reactions were terminated by the addition of methanol containing internal standard. The samples were then centrifuged, and the supernatants were combined, for the simultaneous analysis of 4-hydroxytolbutamide, 4-hydroxymephenyloin, dextrorphan, and 1-hydroxymidazolam plus internal standard by LC-MS/MS using generic LC-MS/MS conditions. Formic acid in deionised water (final concentration=0.1%) was added to the final sample prior to analysis.

CYP2C19 [1] = biological target: T1, CYP2C19 (Homo sapiens (Human), UniProt P33261); assay: CYP2C19 inhibition, human liver microsomes, mephenyloin; format: in vitro ADME
T1 sequence (P33261 whole entry): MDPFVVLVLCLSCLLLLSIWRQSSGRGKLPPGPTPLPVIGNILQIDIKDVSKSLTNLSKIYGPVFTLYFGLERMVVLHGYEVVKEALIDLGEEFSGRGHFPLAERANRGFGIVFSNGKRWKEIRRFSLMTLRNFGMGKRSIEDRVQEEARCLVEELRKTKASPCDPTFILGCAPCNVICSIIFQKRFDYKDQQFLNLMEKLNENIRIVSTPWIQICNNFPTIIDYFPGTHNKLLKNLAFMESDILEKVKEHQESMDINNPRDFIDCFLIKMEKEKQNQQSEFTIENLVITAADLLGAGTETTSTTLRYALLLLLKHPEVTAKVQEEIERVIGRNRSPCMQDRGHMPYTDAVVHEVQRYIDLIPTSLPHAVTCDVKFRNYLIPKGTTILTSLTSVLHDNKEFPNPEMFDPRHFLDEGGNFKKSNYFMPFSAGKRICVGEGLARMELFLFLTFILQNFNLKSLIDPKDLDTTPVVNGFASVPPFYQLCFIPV
Description: (§3) Six test compound concentrations (0.05, 0.25, 0.5, 2.5, 5, 25 μM in DMSO; final DMSO concentration=0.25%) were incubated with human liver microsomes (0.5 mg/mL) and NADPH (1 mM) in the presence of the probe substrate mephenyloin (25 μM) for 60 min at 37° C. The selective CYP2C19 inhibitor, tranylcypromine, was screened alongside the test compounds as a positive control.
as §2

CYP2C9 [2] = biological target: T2, CYP2C9 (Homo sapiens (Human), UniProt P11712); assay: CYP2C9 inhibition, human liver microsomes, tolbutamide; format: in vitro ADME
T2 sequence (P11712 whole entry): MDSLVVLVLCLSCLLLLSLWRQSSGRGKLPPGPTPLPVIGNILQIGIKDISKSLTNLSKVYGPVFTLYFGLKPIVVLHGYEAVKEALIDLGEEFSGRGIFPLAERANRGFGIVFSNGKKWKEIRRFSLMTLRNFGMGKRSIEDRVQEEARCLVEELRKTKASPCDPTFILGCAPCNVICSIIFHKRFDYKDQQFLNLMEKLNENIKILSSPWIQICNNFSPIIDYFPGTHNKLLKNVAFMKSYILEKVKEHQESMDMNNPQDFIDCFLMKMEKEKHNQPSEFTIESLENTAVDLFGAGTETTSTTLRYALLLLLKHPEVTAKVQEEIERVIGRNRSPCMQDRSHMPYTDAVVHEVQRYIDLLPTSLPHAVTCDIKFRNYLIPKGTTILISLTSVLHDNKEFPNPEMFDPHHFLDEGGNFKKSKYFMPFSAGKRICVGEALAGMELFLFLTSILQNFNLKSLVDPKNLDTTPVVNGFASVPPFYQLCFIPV
Description: as §3, with “(1” for “(0.5”, “tolbutamide (120” for “mephenyloin (25”, “CYP2C9” for “CYP2C19”, “sulphaphenazole,” for “tranylcypromine,”
as §2

CYP2D6 [3] = biological target: T3, CYP2D6 (Homo sapiens (Human), UniProt P10635); assay: CYP2D6 inhibition, human liver microsomes, dextromethorphan; format: in vitro ADME
T3 sequence (P10635 whole entry): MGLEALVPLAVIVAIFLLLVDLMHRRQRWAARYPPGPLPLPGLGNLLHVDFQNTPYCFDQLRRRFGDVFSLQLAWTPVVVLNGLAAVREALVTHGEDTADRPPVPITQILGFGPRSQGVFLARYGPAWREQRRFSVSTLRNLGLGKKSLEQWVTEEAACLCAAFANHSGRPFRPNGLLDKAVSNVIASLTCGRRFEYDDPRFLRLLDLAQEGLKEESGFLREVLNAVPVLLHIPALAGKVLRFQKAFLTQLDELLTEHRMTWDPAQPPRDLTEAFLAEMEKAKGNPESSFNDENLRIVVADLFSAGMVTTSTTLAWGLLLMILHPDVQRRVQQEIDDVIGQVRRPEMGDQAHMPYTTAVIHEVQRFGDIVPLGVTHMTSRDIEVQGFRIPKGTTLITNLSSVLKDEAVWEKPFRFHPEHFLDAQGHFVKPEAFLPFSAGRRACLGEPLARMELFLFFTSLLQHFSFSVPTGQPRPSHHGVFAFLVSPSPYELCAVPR
Description: as §3, with “dextromethorphan (5” for “mephenyloin (25”, “30” for “60”, “CYP2D6” for “CYP2C19”, “quinidine,” for “tranylcypromine,”
as §2

CYP3A4 [4] = biological target: T4, CYP3A4 (Homo sapiens (Human), UniProt P08684); assay: CYP3A4 inhibition, human liver microsomes, midazolam; format: in vitro ADME; conditions: human liver microsomes
T4 sequence (P08684 whole entry): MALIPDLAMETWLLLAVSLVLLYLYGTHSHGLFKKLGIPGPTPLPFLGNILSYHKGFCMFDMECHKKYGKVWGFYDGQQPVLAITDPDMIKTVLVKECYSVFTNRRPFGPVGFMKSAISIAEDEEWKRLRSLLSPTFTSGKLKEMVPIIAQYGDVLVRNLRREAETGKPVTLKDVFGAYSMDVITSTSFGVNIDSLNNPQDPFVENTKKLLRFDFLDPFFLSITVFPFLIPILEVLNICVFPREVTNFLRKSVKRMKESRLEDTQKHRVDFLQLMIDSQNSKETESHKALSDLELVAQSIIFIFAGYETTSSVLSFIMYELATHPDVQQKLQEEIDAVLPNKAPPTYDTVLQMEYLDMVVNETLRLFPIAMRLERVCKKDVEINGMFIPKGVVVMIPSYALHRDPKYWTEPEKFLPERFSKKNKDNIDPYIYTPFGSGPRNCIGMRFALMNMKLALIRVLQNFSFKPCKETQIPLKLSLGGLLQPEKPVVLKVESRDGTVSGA
Description: as §1, with “concentration 0.26%)” for “concentration=0.35%)”, “midazolam (2.5” for “ethoxyresorufin (0.5”, “CYP3A4” for “CYP1A”, “ketoconazole,” for “alpha-naphthoflavone,”
as §2

CYP2C19 [5] = biological target: T1, CYP2C19; assay: Cytochrome P450 substrate identification (Bactosomes) CYP2C19; format: in vitro ADME; conditions: pH 7.4, 5 μM test compound, up to 45 min, read-out: half life in the presence of CYP2C19
Description: (§4) cDNA expressed human CYP450 enzyme preparations co-expressed with human NADPH cytochrome P450 reductase (Bactosomes™) were supplied by Cypex Ltd. Bactosomes™ (final P450 concentration CYP1A2 100 pmol/mL, CYP2C8 50 pmol/mL, CYP2C9 25 pmol/mL, CYP2C19 100 pmol/mL, CYP2D6 50 pmol/mL and CYP3A4 25 pmol/mL), 0.1M phosphate buffer pH7.4 and test compound (final substrate concentration=5 μM; final DMSO concentration=0.25%) were pre-incubated at 37° C. prior to the addition of NADPH (final concentration=1 mM) to initiate the reaction. Incubations were also performed using control bactosomes (no P450 enzymes present) to reveal any non-enzymatic degradation. The final incubation volume was 25 μL. Compounds known to be metabolised specifically by each CYP450 isoform were used as control compounds.
(§5) Each compound was incubated singly for 0, 5, 15, 30 and 45 min with each CYP isoform. The reactions were stopped by the addition of 50 μL methanol containing internal standard at the appropriate time points. The incubation plates were centrifuged at 2500 rpm for 20 min at 4° C. to precipitate the protein. Following protein precipitation, the sample supernatants were combined in cassettes of up to four compounds and analysed using generic LC-MS/MS conditions.
(§6) The In peak area ratio (which has been corrected for any loss in the incubations with the control bactosomes) was plotted against time and the gradient of the line determined.
(§7) The elimination rate constant (k)=(−gradient)

CYP2C8 = CYP2C8 (Homo sapiens (Human), UniProt P10632); assay: Cytochrome P450 substrate identification (Bactosomes) CYP2C8; format: in vitro ADME; conditions: pH 7.4, 5 μM test compound, up to 45 min, read-out: half life in the presence of CYP2C8
Sequence of CYP2C8 (P10632 whole entry): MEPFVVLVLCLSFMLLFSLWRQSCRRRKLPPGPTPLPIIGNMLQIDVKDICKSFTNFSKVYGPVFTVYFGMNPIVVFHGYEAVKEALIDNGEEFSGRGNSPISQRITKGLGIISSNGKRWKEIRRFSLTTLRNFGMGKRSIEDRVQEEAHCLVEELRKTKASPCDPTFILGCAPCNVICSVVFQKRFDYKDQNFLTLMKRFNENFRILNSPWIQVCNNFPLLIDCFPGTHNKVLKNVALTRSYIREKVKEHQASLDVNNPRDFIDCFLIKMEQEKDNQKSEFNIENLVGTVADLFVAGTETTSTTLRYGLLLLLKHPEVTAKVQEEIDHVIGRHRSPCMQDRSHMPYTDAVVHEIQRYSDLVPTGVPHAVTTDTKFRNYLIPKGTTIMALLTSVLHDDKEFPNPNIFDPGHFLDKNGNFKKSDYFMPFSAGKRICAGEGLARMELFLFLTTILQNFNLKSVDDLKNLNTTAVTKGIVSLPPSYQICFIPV
Description: as §4, §5, §6, §7

CYP2C9 [6] = biological target: T2, CYP2C9; assay: Cytochrome P450 substrate identification (Bactosomes) CYP2C9; format: in vitro ADME; conditions: pH 7.4, 5 μM test compound, up to 45 min, read-out: half life in the presence of CYP2C9
Description: as §4, §5, §6, §7

CYP2D6 [7] = biological target: T3, CYP2D6; assay: Cytochrome P450 substrate identification (Bactosomes) CYP2D6; format: in vitro ADME; conditions: pH 7.4, 5 μM test compound, up to 45 min, read-out: half life in the presence of CYP2D6
Description: as §4, §5, §6, §7

CYP3A4 [8] = biological target: T4, CYP3A4; assay: Cytochrome P450 substrate identification (Bactosomes) CYP3A4; format: in vitro ADME; conditions: human, pH 7.4; Bactosomes, 5 μM test compound, up to 45 min; read-out: half life in the presence of CYP3A4
Description: as §4, §5, §6, §7

Mcl-1 = Mcl-1 downregulation in H460 cells by Western blotting; format: cell-based; conditions: H460 cells, 24 hours, top concentration close to IC50
Description: The media was removed and the adherent cells washed with 5 ml PBS. […] Proteins were transferred to nitrocellulose membranes (Schleicher & Schuell, Dassel, Germany) using wet electrophoretic transfer. Membranes were stained with Ponceau S to confirm equal loading before blocking in 5% nonfat milk in PBS with 0.05% Tween 20 (PBSTM) for 2 hours. Membranes were incubated overnight at 4° C. with primary antibody (rabbit polyclonal antibody to Mcl-1, Santa Cruz), diluted 1:1000 in PBSTM. Membranes were washed 2×5 minute followed by 2×10 minute in PBS and 0.05% Tween 20 (PBST) and incubated for 1 hour in PBSTM containing horseradish peroxidase-conjugated secondary antibody. Membranes were washed as before and incubated with enhanced chemiluminescence solution (Amersham) and exposed to X-ray film (Amersham).
In a second experiment the effect of additional compounds on Mcl-1 levels was investigated.

Sequence of CYP1A (P05177 2-516 limits assumed): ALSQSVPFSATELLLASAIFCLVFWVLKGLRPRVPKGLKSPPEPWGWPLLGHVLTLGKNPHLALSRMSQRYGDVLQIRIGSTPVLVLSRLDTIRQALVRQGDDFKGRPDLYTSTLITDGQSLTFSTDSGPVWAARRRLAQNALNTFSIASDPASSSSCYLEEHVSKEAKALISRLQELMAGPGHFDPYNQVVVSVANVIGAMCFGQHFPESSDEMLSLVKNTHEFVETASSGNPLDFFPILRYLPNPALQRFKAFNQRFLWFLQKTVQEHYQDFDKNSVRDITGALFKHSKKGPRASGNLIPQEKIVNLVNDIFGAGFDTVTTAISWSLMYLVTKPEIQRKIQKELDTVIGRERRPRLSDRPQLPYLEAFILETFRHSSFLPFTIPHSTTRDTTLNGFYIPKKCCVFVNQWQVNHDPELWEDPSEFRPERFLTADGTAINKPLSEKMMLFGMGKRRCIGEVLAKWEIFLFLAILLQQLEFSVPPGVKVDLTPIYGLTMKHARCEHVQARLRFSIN

| Structure (SMILES) | IC50 at 5 min (CYP1A) [µM] | IC50 (CYP2C19 [1]) [µM] | IC50 (CYP2C9 [2]) [µM] | IC50 (CYP2D6 [3]) [µM] | IC50 (CYP3A4 [4]) [µM] | half-life at 5 μM (CYP2C19 [5]) [min] | half-life at 5 μM (CYP2C8) [min] | half-life at 5 μM (CYP2C9 [6]) [min] | half-life at 5 μM (CYP2D6 [7]) [min] | half-life at 5 μM (CYP3A4 [8]) [min] | changes in Mcl-1 levels (in words) (Mcl-1) |
| --- | --- | --- | --- | --- | --- | --- | --- | --- | --- | --- | --- |
| CC[C@@H](Nc1nc(NCc2cccnc2)c2ncn(C(C)C)c2n1)C(C)(C)O [Compound [A1]] | > 25 | 19.9 | > 25 | > 25 | 1.63 | 58.3 | > 45 | > 45 | > 45 | 28.3 |  |
| CC[C@H](CO)Nc1nc(NCc2ccccc2)c2ncn(C(C)C)c2n1 [Seliciclib, seliciclib, reference compound] |  |  |  |  |  |  |  |  |  |  | very modest changes |
| CC[C@H](Nc1nc(NCc2cccnc2)c2ncn(C(C)C)c2n1)C(C)(C)O [[A2]] | > 25 | > 25 | > 25 | > 25 | 0.48 | > 45 | > 45 | > 45 | > 45 | 32.6 |  |
| CC[C@H](Nc1nc(NCc2cccnc2)c2ncn(C(C)C)c2n1)[C@@H](C)O [[A3]] | > 25 | > 25 | > 25 | > 25 | 1.88 | > 45 | > 45 | > 45 | > 45 | 18 |  |
